Results taken from US20260125360A1, “HERBICIDAL IMIDAZOLE COMPOUNDS” (SYNGENTA CROP PROTECTION AG, priority 2022, published 2026).

Tests used:
Format in all cases: in vivo
Details in all cases: 250 g/ha, evaluated after 13 days
[1] = system: Ipomoea hederacea (IPOHE); experiment: Pre-emergence herbicide glasshouse test
Method: (§1) Seeds of a variety of test species are sown in standard soil in pots Amaranthus palmeri (AMAPA), Amaranthus retoflexus (AMARE), Echinochloa crus-galli (ECHCG), Ipomoea hederacea (IPOHE)). After cultivation for one day (pre-emergence) or after 8 days cultivation (post-emergence) under controlled conditions in a glasshouse (at 24/16° C., day/night; 14 hours light; 65% humidity), the plants are sprayed with an aqueous spray solution derived from the formulation of the technical active ingredient in acetone/water (50:50) solution containing 0.5% Tween 20 (polyoxyethelyene sorbitan monolaurate, CAS RN 9005-64-5). Compounds are applied at 250 g/ha unless otherwise stated. The test plants are then grown in a glasshouse under controlled conditions in a glasshouse (at 24/16° C., day/night; 14 hours light; 65% humidity) and watered twice daily. After 13 days for pre and post-emergence, the test is evaluated for the percentage damage caused to the plant. The biological activities are shown in the following table on a five-point scale (5=81-100%; 4=61-80%; 3=41-60%; 2=21-40%; 1=0-20%).

[2] = system: Amaranthus palmeri (AMAPA); experiment: Pre-emergence herbicide glasshouse test
Method: as §1

[3] = system: Amaranthus retoflexus (AMARE); experiment: Pre-emergence herbicide glasshouse test
Method: as §1

[4] = system: Echinochloa crus-galli (ECHCG); experiment: Pre-emergence herbicide glasshouse test
Method: as §1

[5] = system: Ipomoea hederacea (IPOHE); experiment: Post-emergence herbicide glasshouse test
Method: as §1

[6] = system: Amaranthus palmeri (AMAPA); experiment: Post-emergence herbicide glasshouse test
Method: as §1

[7] = system: Amaranthus retoflexus (AMARE); experiment: Post-emergence herbicide glasshouse test
Method: as §1

[8] = system: Echinochloa crus-galli (ECHCG); experiment: Post-emergence herbicide glasshouse test
Method: as §1

N#Cc1ccc(Cn2cc(C(F)(F)F)nc2-c2ccc(C(F)(F)F)cc2)s1 [Compound 1.001]
2 (2=21-40%): percentage damage caused to the plant, IPOHE (five-point scale) [1] | percentage damage caused to the plant, ECHCG (five-point scale) [4] | percentage damage caused to the plant, ECHCG (five-point scale) [8]
4 (4=61-80%): percentage damage caused to the plant, AMARE (five-point scale) [3] | percentage damage caused to the plant, AMAPA (five-point scale) [6] | percentage damage caused to the plant, AMARE (five-point scale) [7]
5 (5=81-100%): percentage damage caused to the plant, AMAPA (five-point scale) [2]
3 (3=41-60%): percentage damage caused to the plant, IPOHE (five-point scale) [5]

FC(F)(F)c1ccc(-c2nc(C(F)(F)F)cn2Cc2nsc(Cl)n2)cc1 [Compound 1.002]
2 (2=21-40%): percentage damage caused to the plant, AMARE (five-point scale) [7]
1 (1=0-20%): percentage damage caused to the plant, IPOHE (five-point scale) [1] | percentage damage caused to the plant, AMAPA (five-point scale) [2] | percentage damage caused to the plant, ECHCG (five-point scale) [4] | percentage damage caused to the plant, AMAPA (five-point scale) [6] | percentage damage caused to the plant, ECHCG (five-point scale) [8]
3 (3=41-60%): percentage damage caused to the plant, IPOHE (five-point scale) [5]

Cn1cnc(Cn2cc(C(F)(F)F)nc2-c2ccc(C(F)(F)F)cc2)n1 [Compound 1.003, 1-methyl-3-[[4-(trifluoromethyl)-2-[4-(trifluoromethyl)phenyl]imidazol-1-yl]methyl]-1,2,4-triazole]
4 (4=61-80%): percentage damage caused to the plant, AMAPA (five-point scale) [6] | percentage damage caused to the plant, AMARE (five-point scale) [7] | percentage damage caused to the plant, ECHCG (five-point scale) [8]
5 (5=81-100%): percentage damage caused to the plant, IPOHE (five-point scale) [1] | percentage damage caused to the plant, AMAPA (five-point scale) [2] | percentage damage caused to the plant, AMARE (five-point scale) [3] | percentage damage caused to the plant, ECHCG (five-point scale) [4] | percentage damage caused to the plant, IPOHE (five-point scale) [5]

CC(C)(C)c1nc(Cn2cc(C(F)(F)F)nc2-c2ccc(C(F)(F)F)cc2)no1 [Compound 1.004]
2 (2=21-40%): percentage damage caused to the plant, IPOHE (five-point scale) [5]
1 (1=0-20%): percentage damage caused to the plant, IPOHE (five-point scale) [1] | percentage damage caused to the plant, AMAPA (five-point scale) [2] | percentage damage caused to the plant, AMARE (five-point scale) [3] | percentage damage caused to the plant, ECHCG (five-point scale) [4] | percentage damage caused to the plant, AMAPA (five-point scale) [6] | percentage damage caused to the plant, AMARE (five-point scale) [7] | percentage damage caused to the plant, ECHCG (five-point scale) [8]

Cc1noc(C)c1Cn1cc(C(F)(F)F)nc1-c1ccc(C(F)(F)F)cc1 [Compound 1.005]
1 (1=0-20%): percentage damage caused to the plant, IPOHE (five-point scale) [1] | percentage damage caused to the plant, ECHCG (five-point scale) [4] | percentage damage caused to the plant, IPOHE (five-point scale) [5] | percentage damage caused to the plant, AMAPA (five-point scale) [6] | percentage damage caused to the plant, AMARE (five-point scale) [7] | percentage damage caused to the plant, ECHCG (five-point scale) [8]
5 (5=81-100%): percentage damage caused to the plant, AMAPA (five-point scale) [2] | percentage damage caused to the plant, AMARE (five-point scale) [3]

Cc1nonc1Cn1cc(C(F)(F)F)nc1-c1ccc(C(F)(F)F)cc1 [Compound 1.006]
1 (1=0-20%): percentage damage caused to the plant, IPOHE (five-point scale) [1] | percentage damage caused to the plant, AMAPA (five-point scale) [2] | percentage damage caused to the plant, AMARE (five-point scale) [3] | percentage damage caused to the plant, ECHCG (five-point scale) [4] | percentage damage caused to the plant, IPOHE (five-point scale) [5] | percentage damage caused to the plant, AMAPA (five-point scale) [6] | percentage damage caused to the plant, AMARE (five-point scale) [7] | percentage damage caused to the plant, ECHCG (five-point scale) [8]

Cc1nnc(Cn2cc(C(F)(F)F)nc2-c2ccc(C(F)(F)F)cc2)s1 [Compound 1.007]
5 (5=81-100%): percentage damage caused to the plant, IPOHE (five-point scale) [1] | percentage damage caused to the plant, AMAPA (five-point scale) [2] | percentage damage caused to the plant, AMARE (five-point scale) [3] | percentage damage caused to the plant, ECHCG (five-point scale) [4] | percentage damage caused to the plant, IPOHE (five-point scale) [5] | percentage damage caused to the plant, AMAPA (five-point scale) [6] | percentage damage caused to the plant, AMARE (five-point scale) [7] | percentage damage caused to the plant, ECHCG (five-point scale) [8]

Cc1noc(Cn2cc(C(F)(F)F)nc2-c2ccc(C(F)(F)F)cc2)n1 [Compound 1.008]
2 (2=21-40%): percentage damage caused to the plant, ECHCG (five-point scale) [8]
1 (1=0-20%): percentage damage caused to the plant, ECHCG (five-point scale) [4]
4 (4=61-80%): percentage damage caused to the plant, IPOHE (five-point scale) [5] | percentage damage caused to the plant, AMAPA (five-point scale) [6] | percentage damage caused to the plant, AMARE (five-point scale) [7]
3 (3=41-60%): percentage damage caused to the plant, IPOHE (five-point scale) [1]
5 (5=81-100%): percentage damage caused to the plant, AMAPA (five-point scale) [2] | percentage damage caused to the plant, AMARE (five-point scale) [3]

FC(F)(F)c1ccc(-c2nc(C(F)(F)F)cn2Cc2ccno2)cc1 [Compound 1.009]
1 (1=0-20%): percentage damage caused to the plant, IPOHE (five-point scale) [1] | percentage damage caused to the plant, AMAPA (five-point scale) [2] | percentage damage caused to the plant, AMARE (five-point scale) [3] | percentage damage caused to the plant, ECHCG (five-point scale) [4] | percentage damage caused to the plant, AMAPA (five-point scale) [6] | percentage damage caused to the plant, ECHCG (five-point scale) [8]
3 (3=41-60%): percentage damage caused to the plant, IPOHE (five-point scale) [5]
2 (2=21-40%): percentage damage caused to the plant, AMARE (five-point scale) [7]

Cc1nc(Cn2cc(C(F)(F)F)nc2-c2ccc(C(F)(F)F)cc2)cs1 [Compound 1.010]
1 (1=0-20%): percentage damage caused to the plant, ECHCG (five-point scale) [4] | percentage damage caused to the plant, AMAPA (five-point scale) [6] | percentage damage caused to the plant, ECHCG (five-point scale) [8]
2 (2=21-40%): percentage damage caused to the plant, IPOHE (five-point scale) [1] | percentage damage caused to the plant, AMAPA (five-point scale) [2] | percentage damage caused to the plant, AMARE (five-point scale) [7]
5 (5=81-100%): percentage damage caused to the plant, AMARE (five-point scale) [3]
3 (3=41-60%): percentage damage caused to the plant, IPOHE (five-point scale) [5]

COCCc1noc(Cn2cc(C(F)(F)F)nc2-c2ccc(C(F)(F)F)cc2)n1 [Compound 1.011]
1 (1=0-20%): percentage damage caused to the plant, IPOHE (five-point scale) [1] | percentage damage caused to the plant, AMAPA (five-point scale) [2] | percentage damage caused to the plant, AMARE (five-point scale) [3] | percentage damage caused to the plant, ECHCG (five-point scale) [4] | percentage damage caused to the plant, IPOHE (five-point scale) [5] | percentage damage caused to the plant, AMAPA (five-point scale) [6] | percentage damage caused to the plant, AMARE (five-point scale) [7] | percentage damage caused to the plant, ECHCG (five-point scale) [8]

Cc1nc(Cn2cc(C(F)(F)F)nc2-c2ccc(C(F)(F)F)cc2)co1 [Compound 1.012]
3 (3=41-60%): percentage damage caused to the plant, IPOHE (five-point scale) [5]
1 (1=0-20%): percentage damage caused to the plant, IPOHE (five-point scale) [1] | percentage damage caused to the plant, ECHCG (five-point scale) [4] | percentage damage caused to the plant, AMAPA (five-point scale) [6] | percentage damage caused to the plant, AMARE (five-point scale) [7] | percentage damage caused to the plant, ECHCG (five-point scale) [8]
2 (2=21-40%): percentage damage caused to the plant, AMARE (five-point scale) [3]

Cc1cc(Cn2cc(C(F)(F)F)nc2-c2ccc(C(F)(F)F)cc2)no1 [Compound 1.013]
4 (4=61-80%): percentage damage caused to the plant, IPOHE (five-point scale) [5] | percentage damage caused to the plant, AMARE (five-point scale) [7] | percentage damage caused to the plant, ECHCG (five-point scale) [8]
5 (5=81-100%): percentage damage caused to the plant, IPOHE (five-point scale) [1] | percentage damage caused to the plant, AMAPA (five-point scale) [2] | percentage damage caused to the plant, AMARE (five-point scale) [3] | percentage damage caused to the plant, ECHCG (five-point scale) [4] | percentage damage caused to the plant, AMAPA (five-point scale) [6]
